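Results reflect a 48-hour exposure of cells in 96-well plates to compound at five concentrations. The concentration for 50% growth inhibition is given as GI50.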 The source made the active and inactive calls. Rule as the data show it: active = GI50 up to about 1.1 µM and inactive = higher.
Tests used:
Assay in all cases: NCI anticancer screen, dose series, 48 h
SK-MEL-28 = test system: SK-MEL-28
SNB-75 = test system: SNB-75
T47D = test system: T47D
MOLT-4 = test system: MOLT-4
RPMI-8226 = test system: RPMI-8226
DU-145 = test system: DU-145
NCI-H460 = test system: NCI-H460
HL-60 = test system: HL-60
HCC 2998 = test system: HCC 2998
M14 = test system: M14
SF-295 = test system: SF-295
MCF7 = test system: MCF7
LOX IMVI = test system: LOX IMVI
PC-3 = test system: PC-3
UACC-62 = test system: UACC-62
A498 = test system: A498
SF-539 = test system: SF-539
Hs-578T = test system: Hs-578T
SK-MEL-2 = test system: SK-MEL-2
SNB-19 = test system: SNB-19

With COc1ccc(C2C3=C(COC3=O)Oc3cc4c(cc32)OCO4)cc1OC (stereo not given) the GI50 (SK-MEL-28) was 1.16 µM (inactive), the GI50 (SNB-75) was 1.82 µM (inactive) and the GI50 (T47D) was 10.1 µM (inactive). For the same compound, the GI50 (MOLT-4) was 0.466 µM (active), the GI50 (RPMI-8226) was 0.447 µM (active) and the GI50 (DU-145) was 1.81 µM (inactive). For the same compound, the GI50 (NCI-H460) was 0.547 µM (active), the GI50 (HL-60) was 0.208 µM (active) and the GI50 (HCC 2998) was 0.614 µM (active). For the same compound, the GI50 (M14) was 1.52 µM (inactive), the GI50 (SF-295) was 0.716 µM (active) and the GI50 (MCF7) was 0.408 µM (active). For the same compound, the GI50 (LOX IMVI) was 0.65 µM (active), the GI50 (PC-3) was 0.521 µM (active) and the GI50 (UACC-62) was 0.859 µM (active). The GI50 (A498) was 0.352 µM (active), the GI50 (SF-539) was 0.547 µM (active) and the GI50 (Hs-578T) was 0.408 µM (active). The GI50 (SK-MEL-2) was 0.679 µM (active) and the GI50 (SNB-19) was 0.716 µM (active).
For Nc1ccn(C=C=CCO)c(=O)n1, the GI50 (SK-MEL-28) was > 100 µM (inactive), the GI50 (SNB-75) was > 93.8 µM (inactive) and the GI50 (T47D) was > 93.8 µM (inactive). The GI50 (MOLT-4) was 5.85 µM (inactive), the GI50 (RPMI-8226) was 589 µM (inactive) and the GI50 (DU-145) was > 100 µM (inactive). The GI50 (NCI-H460) was > 100 µM (inactive), the GI50 (HL-60) was 48.9 µM (inactive) and the GI50 (HCC 2998) was > 78.5 µM (inactive). The GI50 (M14) was > 100 µM (inactive), the GI50 (SF-295) was > 100 µM (inactive) and the GI50 (MCF7) was > 100 µM (inactive). The GI50 (LOX IMVI) was > 100 µM (inactive), the GI50 (PC-3) was > 100 µM (inactive) and the GI50 (UACC-62) was > 100 µM (inactive). For the same compound, the GI50 (A498) was > 100 µM (inactive), the GI50 (SF-539) was > 100 µM (inactive) and the GI50 (Hs-578T) was > 100 µM (inactive). For the same compound, the GI50 (SK-MEL-2) was > 100 µM (inactive) and the GI50 (SNB-19) was > 100 µM (inactive).
For C(=C\c1cccc(/C=C/c2ccccn2)n1)/c1ccccn1, the GI50 (SK-MEL-28) was 81.3 µM (inactive), the GI50 (SNB-75) was 37.4 µM (inactive) and the GI50 (T47D) was 44.5 µM (inactive). For the same compound, the GI50 (MOLT-4) was 31.5 µM (inactive), the GI50 (RPMI-8226) was 43.6 µM (inactive) and the GI50 (DU-145) was > 100 µM (inactive). The GI50 (NCI-H460) was > 100 µM (inactive), the GI50 (HL-60) was 72.4 µM (inactive) and the GI50 (HCC 2998) was 79.6 µM (inactive). The GI50 (M14) was 43.3 µM (inactive), the GI50 (SF-295) was 66.2 µM (inactive) and the GI50 (MCF7) was 26.6 µM (inactive). The GI50 (LOX IMVI) was 66.4 µM (inactive), the GI50 (PC-3) was 58.9 µM (inactive) and the GI50 (UACC-62) was 27.1 µM (inactive). For the same compound, the GI50 (A498) was 0.971 µM (active), the GI50 (SF-539) was > 100 µM (inactive) and the GI50 (Hs-578T) was 19.5 µM (inactive). For the same compound, the GI50 (SK-MEL-2) was > 100 µM (inactive) and the GI50 (SNB-19) was > 100 µM (inactive).
With N=C(N)NCCCC(NC(=O)OCCCCn1ccc(N)nc1=O)C(=O)O (stereo not given) the GI50 (SK-MEL-28) was > 100 µM (inactive), the GI50 (SNB-75) was > 100 µM (inactive) and the GI50 (T47D) was > 100 µM (inactive). The GI50 (MOLT-4) was > 100 µM (inactive), the GI50 (RPMI-8226) was > 100 µM (inactive) and the GI50 (DU-145) was > 100 µM (inactive). The GI50 (NCI-H460) was > 100 µM (inactive), the GI50 (HL-60) was > 100 µM (inactive) and the GI50 (HCC 2998) was > 100 µM (inactive). The GI50 (M14) was > 100 µM (inactive), the GI50 (SF-295) was > 100 µM (inactive) and the GI50 (MCF7) was > 100 µM (inactive). The GI50 (LOX IMVI) was > 100 µM (inactive), the GI50 (PC-3) was > 100 µM (inactive) and the GI50 (UACC-62) was > 100 µM (inactive). The GI50 (A498) was > 100 µM (inactive), the GI50 (SF-539) was > 100 µM (inactive) and the GI50 (Hs-578T) was > 100 µM (inactive). The GI50 (SK-MEL-2) was > 100 µM (inactive) and the GI50 (SNB-19) was > 100 µM (inactive).
For CC(=O)OC1COC(n2nc(/C=C/c3ccc(Cl)cc3)c(=O)n(/N=C/c3ccccc3)c2=S)C(OC(C)=O)C1OC(C)=O (stereo not given), the GI50 (SK-MEL-28) was > 100 µM (inactive), the GI50 (SNB-75) was > 100 µM (inactive) and the GI50 (T47D) was > 100 µM (inactive). For the same compound, the GI50 (MOLT-4) was > 100 µM (inactive), the GI50 (RPMI-8226) was > 100 µM (inactive) and the GI50 (DU-145) was > 100 µM (inactive). The GI50 (NCI-H460) was > 100 µM (inactive), the GI50 (HL-60) was > 100 µM (inactive) and the GI50 (HCC 2998) was > 100 µM (inactive). The GI50 (M14) was > 100 µM (inactive), the GI50 (SF-295) was > 100 µM (inactive) and the GI50 (MCF7) was > 100 µM (inactive). The GI50 (LOX IMVI) was > 100 µM (inactive), the GI50 (PC-3) was > 100 µM (inactive) and the GI50 (UACC-62) was > 100 µM (inactive). The GI50 (A498) was > 100 µM (inactive), the GI50 (SF-539) was > 100 µM (inactive) and the GI50 (Hs-578T) was > 100 µM (inactive). For the same compound, the GI50 (SK-MEL-2) was > 100 µM (inactive) and the GI50 (SNB-19) was > 100 µM (inactive).
With CCOC(=O)C(CC#Cc1ccc(C#CCC(NC(C)=O)C(=O)OCC)cc1)NC(C)=O (stereo not given) the GI50 (SK-MEL-28) was > 100 µM (inactive), the GI50 (SNB-75) was > 100 µM (inactive) and the GI50 (T47D) was > 100 µM (inactive). For the same compound, the GI50 (MOLT-4) was > 100 µM (inactive), the GI50 (RPMI-8226) was > 100 µM (inactive) and the GI50 (DU-145) was > 100 µM (inactive). The GI50 (NCI-H460) was > 100 µM (inactive), the GI50 (HL-60) was > 100 µM (inactive) and the GI50 (HCC 2998) was > 100 µM (inactive). The GI50 (M14) was > 100 µM (inactive), the GI50 (SF-295) was > 100 µM (inactive) and the GI50 (MCF7) was > 100 µM (inactive). For the same compound, the GI50 (LOX IMVI) was > 100 µM (inactive), the GI50 (PC-3) was > 100 µM (inactive) and the GI50 (UACC-62) was > 100 µM (inactive). The GI50 (A498) was > 100 µM (inactive), the GI50 (SF-539) was > 100 µM (inactive) and the GI50 (Hs-578T) was > 100 µM (inactive). The GI50 (SK-MEL-2) was > 100 µM (inactive) and the GI50 (SNB-19) was > 100 µM (inactive).
With COc1cccc2c(Nc3ccc(S(=O)(=O)NC(C)=O)cc3)c3ccc([N+](=O)[O-])cc3nc12 the GI50 (SK-MEL-28) was > 48.4 µM (inactive), the GI50 (SNB-75) was 8.28 µM (inactive) and the GI50 (T47D) was 94.4 µM (inactive). The GI50 (MOLT-4) was 17.2 µM (inactive), the GI50 (RPMI-8226) was 16.3 µM (inactive) and the GI50 (DU-145) was > 70.3 µM (inactive). For the same compound, the GI50 (NCI-H460) was 32.3 µM (inactive), the GI50 (HL-60) was 36 µM (inactive) and the GI50 (HCC 2998) was 44.9 µM (inactive). The GI50 (M14) was 53.1 µM (inactive), the GI50 (SF-295) was > 88.3 µM (inactive) and the GI50 (MCF7) was 13.1 µM (inactive). For the same compound, the GI50 (LOX IMVI) was 37.2 µM (inactive), the GI50 (PC-3) was 20.4 µM (inactive) and the GI50 (UACC-62) was 31.4 µM (inactive). For the same compound, the GI50 (A498) was 56.8 µM (inactive), the GI50 (SF-539) was 60.5 µM (inactive) and the GI50 (Hs-578T) was 32.3 µM (inactive). The GI50 (SK-MEL-2) was 49.9 µM (inactive) and the GI50 (SNB-19) was > 45 µM (inactive).

Reference: ChEMBL document CHEMBL1201862, “PubChem BioAssay data set” (2004)
